Measured values taken from US20260256792A1, “TREATMENT OF CHRONIC SPONTANEOUS URTICARIA BY ADMINISTERING (R)-2-[3-[4-AMINO-3-(2-FLUORO-4-PHENOXY-PHENYL)PYRAZOLO[3,4-D]PYRIMIDIN-1-YL]PIPERIDINE-1-CARBONYL]-4-METHYL-4-[4-(OXETAN-3-YL)PIPERAZIN-1-YL]PENT-2-ENENITRILE” (priority 2023, published 2026).

System: moderate-to-severe chronic spontaneous urticaria (CSU)
Assay: Phase 2 CSU study: urticaria activity score over 7 days (UAS7)
Format: in vivo, human
Details: Omalizumab-Naïve
Description: The study comprises a 12 week, randomized, double-blind, placebo-controlled, multi-center, dose-ranging efficacy and safety phase, followed by a 40 week open label extension (OLE) phase (see FIG. 1). The study consists of three phases and an optional OLE phase. […] Clinically, CSU is characterized by the spontaneous and recurrent appearance of pruritic hives. The proposed primary endpoints were the UAS7 at Week 12 in EU and EU reference countries and the ISS7 in the US. Regardless of where a participant was from, all assessments were the same. The UAS7 score is a composite score containing both the HSS7 and the ISS7. This allowed a global assessment of the two key components of urticaria: hives and itch. […] The UAS is a validated PRO measure. […] The daily UAS scores range from 0 to 6 point/day. […] Patients were to complete the UAS using the e-diary. […] The following secondary endpoints were to be analyzed using the same approach as for the primary endpoint: • Change from baseline in UAS7 at Week 4 • Change from baseline in UAS7 at Week 12 (for US and US reference countries) • Change from baseline in ISS7 at Week 12 (except US and US reference countries) • Change from baseline in HSS7 at Week 12 The following responder secondary endpoints were to be analyzed using the Cochran-Mantel-Haenszel test adjusted by region: • Proportion of participants with UAS7<6 at Week 12 • Proportion of participants with UAS7=0 at Week 12 Participants who received selected prohibited medications and/or rescue medications were to be considered as non-responders for time points after the medication usage. For other participants, all available data including those collected during the off-treatment period were to be used to determine the responder/non-responder status. Missing data were to be considered as non-responders.

[1] = Baseline Total IgE (IU/mL) ≥300, 400 mg BID
[2] = Baseline Total IgE (IU/mL) ≥300, 400 mg QPM
[3] = Baseline Total IgE (IU/mL) ≥300, 400 mg TID
[4] = Baseline UAS7 score <28, 400 mg BID
[5] = Baseline UAS7 score <28, 400 mg QPM
[6] = Baseline UAS7 score <28, 400 mg TID
[7] = Baseline UAS7 score ≥28, 400 mg BID
[8] = Baseline UAS7 score ≥28, 400 mg QPM
[9] = Baseline UAS7 score ≥28, 400 mg TID
[10] = Duration of disease (years) 2-10, 400 mg BID
[11] = Duration of disease (years) 2-10, 400 mg QPM
[12] = Duration of disease (years) 2-10, 400 mg TID
[13] = Duration of disease (years) <2, 400 mg BID
[14] = Duration of disease (years) <2, 400 mg QPM
[15] = Duration of disease (years) <2, 400 mg TID
[16] = Duration of disease (years) >10, 400 mg BID
[17] = Duration of disease (years) >10, 400 mg QPM
[18] = Duration of disease (years) >10, 400 mg TID
[19] = Ethnicity Non-Hispanic, 400 mg BID
[20] = Ethnicity Non-Hispanic, 400 mg QPM

CC(C)(C=C(C#N)C(=O)N1CCC[C@@H](n2nc(-c3ccc(Oc4ccccc4)cc3F)c3c(N)ncnc32)C1)N1CCN(C2COC2)CC1 [rilzabrutinib, (R)-2-[3-[4-amino-3-(2-fluoro-4-phenoxy-phenyl)pyrazolo[3,4-d]pyrimidin-1-yl]piperidine-1-carbonyl]-4-methyl-4-[4-(oxetan-3-yl)piperazin-1-yl]pent-2-enenitrile]
Change from Baseline in UAS7 at Week 12: Mean (SD) (Baseline Total IgE (IU/mL) ≥100, 400 mg TID): −17.31 (9.51) | Change from Baseline in UAS7 at Week 12: LS Mean (SE) [1]: −14.22 (3.59) | Change from Baseline in UAS7 at Week 12: LS Mean Diff vs. placebo (95% CI) [1]: −1.77 (−12.00, 8.47) | Change from Baseline in UAS7 at Week 12: LS Mean (SE) [2]: −8.04 (3.57) | Change from Baseline in UAS7 at Week 12: LS Mean Diff vs. placebo (95% CI) [2]: 4.42 (−5.58, 14.42) | Change from Baseline in UAS7 at Week 12: Mean (SD) [2]: −9.60 (9.52) | Change from Baseline in UAS7 at Week 12: LS Mean (SE) [3]: −14.94 (3.46) | Change from Baseline in UAS7 at Week 12: LS Mean Diff vs. placebo (95% CI) [3]: −2.48 (−12.37, 7.41) | Change from Baseline in UAS7 at Week 12: Mean (SD) [3]: −16.12 (9.22) | Change from Baseline in UAS7 at Week 12: LS Mean Diff vs. placebo (95% CI) [4]: −4.49 (−12.35, 3.38) | Change from Baseline in UAS7 at Week 12: Mean (SD) [4]: −11.43 (8.06) | Change from Baseline in UAS7 at Week 12: LS Mean (SE) [5]: −5.87 (3.45) | Change from Baseline in UAS7 at Week 12: LS Mean Diff vs. placebo (95% CI) [5]: −1.46 (−10.06, 7.14) | Change from Baseline in UAS7 at Week 12: Mean (SD) [5]: −8.39 (3.86) | Change from Baseline in UAS7 at Week 12: LS Mean Diff vs. placebo (95% CI) [6]: −7.34 (−15.21, 0.52) | Change from Baseline in UAS7 at Week 12: Mean (SD) [6]: −13.43 (7.05) | Change from Baseline in UAS7 at Week 12: LS Mean (SE) [7]: −17.23 (2.81) | Change from Baseline in UAS7 at Week 12: LS Mean Diff vs. placebo (95% CI) [7]: −4.13 (−11.78, 3.52) | Change from Baseline in UAS7 at Week 12: Mean (SD) [7]: −16.73 (14.20) | Change from Baseline in UAS7 at Week 12: LS Mean (SE) [8]: −11.17 (2.39) | Change from Baseline in UAS7 at Week 12: LS Mean Diff vs. placebo (95% CI) [8]: 1.94 (−5.16, 9.03) | Change from Baseline in UAS7 at Week 12: LS Mean (SE) [9]: −19.91 (2.64) | Change from Baseline in UAS7 at Week 12: LS Mean Diff vs. placebo (95% CI) [9]: −6.81 (−14.23, 0.62) | Change from Baseline in UAS7 at Week 12: Mean (SD) [9]: −22.66 (12.35) | Change from Baseline in UAS7 at Week 12: Mean (SD) (Baseline weight (kg) <72.9 (Median), 400 mg BID): −12.97 (9.84) | Change from Baseline in UAS7 at Week 12: Mean (SD) (Baseline weight (kg) <72.9 (Median), 400 mg QPM): −7.98 (7.20) | Change from Baseline in UAS7 at Week 12: Mean (SD) (Baseline weight (kg) <72.9 (Median), 400 mg TID): −20.83 (13.25) | Change from Baseline in UAS7 at Week 12: LS Mean (SE) [10]: −12.88 (3.03) | Change from Baseline in UAS7 at Week 12: LS Mean Diff vs. placebo (95% CI) [10]: −0.05 (−8.24, 8.14) | Change from Baseline in UAS7 at Week 12: Mean (SD) [10]: −15.56 (14.75) | Change from Baseline in UAS7 at Week 12: LS Mean (SE) [11]: −9.73 (2.58) | Change from Baseline in UAS7 at Week 12: LS Mean Diff vs. placebo (95% CI) [11]: 3.11 (−4.51, 10.72) | Change from Baseline in UAS7 at Week 12: Mean (SD) [11]: −10.83 (9.70) | Change from Baseline in UAS7 at Week 12: LS Mean (SE) [12]: −16.44 (3.07) | Change from Baseline in UAS7 at Week 12: LS Mean Diff vs. placebo (95% CI) [12]: −3.61 (−11.80, 4.58) | Change from Baseline in UAS7 at Week 12: Mean (SD) [12]: −17.51 (11.39) | Change from Baseline in UAS7 at Week 12: LS Mean (SE) [13]: −16.30 (2.66) | Change from Baseline in UAS7 at Week 12: LS Mean Diff vs. placebo (95% CI) [13]: −9.24 (−17.02, −1.46) | Change from Baseline in UAS7 at Week 12: Mean (SD) [13]: −14.54 (10.00) | Change from Baseline in UAS7 at Week 12: LS Mean (SE) [14]: −10.62 (3.36) | Change from Baseline in UAS7 at Week 12: LS Mean Diff vs. placebo (95% CI) [14]: −3.55 (−12.28, 5.17) | Change from Baseline in UAS7 at Week 12: LS Mean (SE) [15]: −17.20 (3.03) | Change from Baseline in UAS7 at Week 12: LS Mean Diff vs. placebo (95% CI) [15]: −10.14 (−18.42, −1.86) | Change from Baseline in UAS7 at Week 12: Mean (SD) [15]: −19.20 (11.00) | Change from Baseline in UAS7 at Week 12: LS Mean (SE) [16]: 8.87 (12.67) | Change from Baseline in UAS7 at Week 12: LS Mean Diff vs. placebo (95% CI) [16]: 14.79 (−14.26, 43.85) | Change from Baseline in UAS7 at Week 12: Mean (SD) [16]: −1.83 (NC) | Change from Baseline in UAS7 at Week 12: LS Mean Diff vs. placebo (95% CI) [17]: 4.87 (−13.68, 23.41) | Change from Baseline in UAS7 at Week 12: Mean (SD) [17]: −4.70 (7.74) | Change from Baseline in UAS7 at Week 12: LS Mean (SE) [18]: −18.73 (5.22) | Change from Baseline in UAS7 at Week 12: LS Mean Diff vs. placebo (95% CI) [18]: −12.81 (−29.81, 4.20) | Change from Baseline in UAS7 at Week 12: Mean (SD) [18]: −23.13 (14.76) | Change from Baseline in UAS7 at Week 12: LS Mean (SE) (Ethnicity Hispanic, 400 mg BID): −10.31 (3.59) | Change from Baseline in UAS7 at Week 12: LS Mean Diff vs. placebo (95% CI) (Ethnicity Hispanic, 400 mg BID): 2.24 (−7.72, 12.19) | Change from Baseline in UAS7 at Week 12: Mean (SD) (Ethnicity Hispanic, 400 mg BID): −10.23 (11.81) | Change from Baseline in UAS7 at Week 12: LS Mean (SE) (Ethnicity Hispanic, 400 mg QPM): −8.80 (2.97) | Change from Baseline in UAS7 at Week 12: LS Mean Diff vs. placebo (95% CI) (Ethnicity Hispanic, 400 mg QPM): 3.74 (−5.35, 12.83) | Change from Baseline in UAS7 at Week 12: Mean (SD) (Ethnicity Hispanic, 400 mg QPM): −10.26 (9.92) | Change from Baseline in UAS7 at Week 12: LS Mean (SE) (Ethnicity Hispanic, 400 mg TID): −13.76 (3.78) | Change from Baseline in UAS7 at Week 12: LS Mean Diff vs. placebo (95% CI) (Ethnicity Hispanic, 400 mg TID): −1.22 (−11.34, 8.91) | Change from Baseline in UAS7 at Week 12: Mean (SD) (Ethnicity Hispanic, 400 mg TID): −15.49 (12.69) | Change from Baseline in UAS7 at Week 12: LS Mean (SE) [19]: −16.16 (2.46) | Change from Baseline in UAS7 at Week 12: LS Mean Diff vs. placebo (95% CI) [19]: −7.92 (−14.63, −1.20) | Change from Baseline in UAS7 at Week 12: Mean (SD) [19]: −16.52 (12.39) | Change from Baseline in UAS7 at Week 12: LS Mean (SE) [20]: 9.79 (2.59) | Change from Baseline in UAS7 at Week 12: LS Mean Diff vs. placebo (95% CI) [20]: −1.54 (−8.49, 5.41)
